Data set [1] addresses T1, rat lactate dehydrogenase A (rLDHA) (Rattus norvegicus, UniProt P04642).
T1 construct: gene Ldha; amino acids 1–332 of full-length wild type, untagged, biotinylated
Nature of the data set: SPR (BIAcore T200), steady-state affinity; kinetic fit gives Kd […]. The format is binding. For orientation: SPR reads the build-up and loss of mass on a sensor chip optically.

Data set [2] concerns CC(=O)C(=O)O. Nature of the data set: purified protein. As to conditions: NADH.

In general, Kd refers to the equilibrium constant for the complex coming apart. Low readings indicate a tighter complex, high ones a looser complex. Turning to `NC(=O)C1=CN([C@@H]2O[C@H](COP(=O)(O)OP(=O)(O)OC[C@H]3O[C@@H](n4cnc5c(N)ncnc54)[C@H](O)[C@@H]3O)[C@@H](O)[C@H]2O)C=CC1` [NADH], in data set [1], the affinity, expressed as Kd, was 6.4 ± 0.3 µM.

As a reminder, the Km is the concentration of substrate that gives half-maximal velocity. Turning to “rat lactate dehydrogenase A (rLDHA) (Rattus norvegicus)”, in data set [2], the Km stood at 530 ± 80 µM.

The values above are taken from publication PMC4696747 (PLoS ONE, 2015).
